Experiment: FLIPR Assays: In vitro assays were performed in a recombinant cell line expressing cDNA encoding the alpha subunit (Nav1.7, SCN9a, PN1, NE) of human Nav1.7 (Accession No. NM_002977). The cell line was provided by investigators at Yale University (Cummins et al, J. Neurosci. 18(23): 9607-9619 (1998)). For dominant selection of the Nav1.7-expressing clones, the expression plasmid co-expressed the neomycin resistance gene. The cell line was constructed in the human embryonic kidney cell line, HEK293, under the influence of the […], and stable clones were selected using limiting dilution cloning and antibiotic selection using the neomycin analogue, G418. Recombinant beta and gamma subunits were not introduced into this cell line. Additional cell lines expressing recombinant Nav1.7 cloned from other species can also be used, alone or in combination with various beta subunits, gamma subunits or chaperones.

Question: Which IC50 does the source give for `NC(=O)[C@H](O)[C@@H](O)c1cccc(-c2ccc3c(ccn3CC3CC3)c2)n1` here?
Answer: 1020 µM

Source: ChEMBL document CHEMBL5727859, “Indole derivatives and use thereof” (2020)
